One data set deals with HIV. To be noted: cited from earlier work.
Data set [1] addresses T1, adenosine deaminase (adenosine aminohydrolase, EC 3.5.4.4) (Bos taurus, UniProt P56658).
T1 sequence (P56658 1-363): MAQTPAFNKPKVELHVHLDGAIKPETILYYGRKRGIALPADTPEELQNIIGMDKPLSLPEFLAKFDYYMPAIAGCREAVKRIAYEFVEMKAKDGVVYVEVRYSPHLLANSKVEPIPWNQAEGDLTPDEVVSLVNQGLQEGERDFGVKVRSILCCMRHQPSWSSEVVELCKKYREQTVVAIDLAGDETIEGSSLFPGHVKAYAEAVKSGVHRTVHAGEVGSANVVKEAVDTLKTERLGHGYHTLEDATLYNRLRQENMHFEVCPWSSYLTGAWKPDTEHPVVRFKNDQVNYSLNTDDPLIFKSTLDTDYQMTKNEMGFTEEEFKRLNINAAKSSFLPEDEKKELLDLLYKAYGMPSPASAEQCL
In words: Enzymatic deamination by adenosine deaminase (HPLC). Here is the method: FIG. 1. Deamination of dideoxyadenosine analogues by adenosine deaminase. Hydrolysis kinetics and 2'-F-dd-ara-I formation during the incubation of 50 μM N^6 -CH3 -2'-F-dd-ara-A (1f) with 0.7 units/mL of adenosine deaminase at 37° C. A unit of adenosine deaminase is the amount of enzyme which hydrolyzes a standard substrate (e.g., adenosine) at the rate of 1.0 μmole/min at 25° C. and pH 7.5. […] Insert: Adenosine deaminase hydrolysis kinetics for 50 μM ddA and 2'-F-dd-ara-A. The hydrolysis curve for ddA has been extrapolated from kinetics obtained with 0.07 units/mL of adenosine deaminase under identical conditions.
A 50 μl aliquot of a 10 mg/ml suspension of adenosine deaminase (adenosine aminohydrolase, EC 3.5.4.4) from calf intestinal mucosa was centrifuged at 600×g for 3 min. The residue remaining after removal of the (NH4)2 SO4 supernatant was dissolved in 0.5 ml pH 7.4 tris(hydroxymethyl)-aminomethane (Tris) buffer to give an enzyme solution of 1 mg/ml (274 units/ml). […] A pH 7.4 buffer was prepared by adjusting 0.01M Tris to pH 7.4 with 0.5N HCl, The 1.0 HCl , HPLC-grade acetonitrile, monobasic potassium phosphate, sodium hydroxide and ultrapure Tris were all commercially available and were used without further purification.
Enzymatic Deamination of Adenosine Analogues. […] A 50 μL aliquot of substrate solution was diluted with 0.95 ml 0.01M Tris buffer in a 1.5-mL Eppendorf tube and equilibrated at 37° C. in a Dubnoff metabolic shaking incubator. Reaction was initiated by addition of 2.5 μL of adenosine deaminase solution (0.7 unit). At specified time intervals, a 50 μL aliquot of the reaction mixture was withdrawn and quenched by mixing with 0.45 mL cold 2 μM 2'-deoxycoformycin. This diluted sample was ultrafiltered to remove enzyme in a Centrifree Micropartition unit by centrifugation at 600×g at 4° C. in a high speed refrigerated centrifuge. The decrease in substrate concentration was monitored by HPLC analysis of the resultant ultrafiltrate (see below). The ability of 2'-deoxycoformycin to inhibit deamination under the above conditions was evaluated by adding 2 μL of 1.0 mM inhibitor to diluted substrate solutions at the time of equilibration. Reaction, sampling and analysis were carried out as above. […] Initial hydrolysis rates for each substrate concentration were measured through linear least-squares curve fitting of the concentration versus time data for reaction of the first 10% of substrate. KM and vmax values for each substrate were then determined from a graphical lineweaver-Burke plot of these initial rates (FIG. 1).
HPLC Analysis of Dideoxypurine Nucleosides.
Concentrations of dideoxynucleosides were measured by the HPLC analysis of 100 μL aliquots of ultrafiltered samples. A 4.6×250 mm 5-μm Ultrasphere-ODS column, protected by a Waters guard column packed with 37-50 μm Vydac 201SC, was eluted with 10-20% CH3 CN in 0.01M pH 7.0 phosphate buffer at a flow rate of 1.0 mL/min. Dideoxynucleosides and deamination products were detected at the appropriate wavelength of maximum absorption with a Gilson 116 variable wavelength detector. Peak identity was determined from coincidence of retention times with standards and by comparison of on-the-fly UV spectra obtained with a Perkin-Elmer LC-235 diode array detector. Peak areas and peak heights were measured simultaneously on a Spectra-Physics SP4200 computing integrator.

A short description of another data set: physchem. The conditions noted are these: octanol/ph 7.0 buffer, pH 7, Log P.

The structures appear in SMILES notation.

Broadly, the half-life is the time needed for the level to fall by half in the phase considered. The low end stands for rapid decline, the high end for slow decline. One may read the logD as the decadic logarithm of the distribution of all forms, ionised or not, between an organic phase and buffer at a given pH. Lower therefore signals a more hydrophilic compound. With `CNc1ncnc2c1ncn2[C@@H]1O[C@H](CO)C[C@@H]1F` [Compound 1f, N^6 -Methyl-9-(2'3'-dideoxy-2'-fluoro-β-D-arabinofuranosyl)adenine], the “activity against HIV in peripheral blood mononuclear cells (in words)” value in the data set on HIV is “the activity of 1f against HIV in peripheral blood mononuclear cells was recently reported”. In addition, the “Measured Relative Rate” value in data set [1] (50 μM substrate, pH 7.4 and 37° C., ddA = 100) is 0.04. In addition, the “deamination product / product formation (in words)” value in data set [1] (0.7 U/mL ADA, 37° C.) was “the corresponding inosine analogue, 1b, was the product formed”. For the same compound, the half-life at 50 µM in data set [1] (bovine, adenosine deaminase) is 3 h. Besides, the vmax in data set [1] (pH 7.4 and 37° C.) is listed as 5.5 × 10^-4 μmol/min/U. In data set [1] (vs 1a, 0.7 U/mL ADA, 37° C.), the “hydrolysis rate, times slower than 1a” value is listed as 135 times slower. In data set [1] (vs 1i), the “binding to ADA, times tighter than 1i” value is listed as “about 70 times tighter” and the “vmax, times slower than 1i” value was 50 times slower. Further, the “hydrolysis by ADA, times slower than ddA” value in data set [1] (vs ddA, 50 μM substrate) is around 2500 times slower. This compound also displayed a logD in the data set “physchem” of 0.27 ± 0.01.

(Values after patent publication US5459256A, “Lipophilic, aminohydrolase-activated prodrugs” (priority 1991, dated 1995).)
